Test results reported in patent US20240327331A1, “ESTERS OF 7-COOH CBD DERIVATIVES AND THEIR USE AS PREVENTION, PROPHYLAXIS OF PROGRESSION, AND/OR TREATMENT OF NEUROGENERATIVE DISEASES” (Receptor Pharma INC, priority 2021, published 2024).

Experiments:
GPR3 receptor [1] = biological target: T1, GPR3 receptor (Homo sapiens, UniProt P46089); conditions: cited from earlier work; for mode of action at the GPR3 receptor: Laun and Song 2017, Lunn et al 2006
GPR3 receptor [2] = biological target: T1, GPR3 receptor; experiment: PathHunter β-arrestin2 recruitment assay in CHO-K1 cells expressing GPR3-PK; assay type: cell-based; set-up: host or cells: CHO-K1 (PathHunter eXpress kit); conditions: for mode of action at the GPR3 receptor (β-arrestin2 recruitment): 0.1 μM, 1 μM and 10 μM, FIG. 1
Excerpt: The PathHunter™ eXpress kits containing Chinese hamster ovary (CHO)-K1 cells co-expressing EA-O-arrestin2 human and GPR3-PK were purchased from DiscoverX (Fremont, CA). All cannabinoid ligands were purchased from BDG Synthesis (Wellington, New Zealand).
PathHunter™ eXpress kits were used to measure GPR3-mediated β-arrestin2 recruitment following manufacturer's instructions. In this system, Chinese hamster ovary (CHO)-K1 cell line are stably expressing the GPR3 receptors which were fused to a “ProLink (PK)” fragment of βi-galactosidase to form GPR3-PK. The remaining sequence of β-galactosidase enzyme acceptor (EA) was linked to β-arrestin2 to form EA-β-arrestin2. Recruitment of Si-arrestin2 by receptor activation causes complementation of the two enzyme fragments. Levels of the active enzyme are the direct result of β-arrestin2 recruitment caused by receptor activation and quantified using the PathHunter detection reagent containing β-galactosidase substrates. Cells were plated in DiscoverX cell plating reagent1 in 384-well plates and cultured for 24-48 hours prior to experimentation in a humidified atmosphere at 37° C. and 5% CO2. Cannabinoid ligands were diluted in DiscoverX cell plating reagent1. Cells were then incubated with ligand at 37° C. following manufacturer's recommendations, followed by incubation with detection reagent in the dark for 1 hour at 23° C. Luminescence signal was then detected using a TECAN GENios Pro microplate reader.
Ligand-induced changes in R-arrestin2 recruitment to GPR3 were expressed as percent basal relative luminescence units, which was calculated by dividing luminescence readings in the presence of ligands by basal luminescence readings, times 100. Concentration-response curves were generated by performing nonlinear regression analysis using GraphPad Prism (GraphPad Software, La Jolla, CA). Data were analyzed using one-way analysis of variance (ANOVA) followed by NewmanKeuls post-test. Data points shown are presented as mean±SEM, and were obtained from three independent experiments performed in quadruplicate.
To determine whether CBD and its human metabolites 6-OH-CBD, 7-OH-CBD and 7-COOH-CBD are capable of changing S3-arrestin2 recruitment to GPR3, β-arrestin2 recruitment assays were performed using 0.1 μM and 1 μM and 10 μM concentrations.

[3] = test system: icv streptozotocin (stz) rat model of Alzheimer Disease; experiment: Novel object recognition test in icv streptozotocin rat model of Alzheimer Disease; assay type: in vivo, Wistar rats; conditions: STZ 3 mg/kg icv, daily treatment 8 days, test after 24 h; 1j 25 mg/kg ip, 7-COOH-CBD 20 mg/kg; N=6
Excerpt: This in vivo model represents a model for the most frequent form of Alzheimer Disease, the late onset or ‘sporadic’ form. The icv injection of stz in the rat brain induces pathological changes that are observed in patients with Alzheimer Disease, like accumulation of beta-amyloid and Tau-protein and the well-known cognitive impairment. This well-known model was first described in the 90-ies by Mayer et al. (1990) and Lannert et al. (1998). The procedure for the creation of the model has recently been described in detail by Moreiro-Silva et al. (2019). In short, a 1-3 mg/kg dose of stz is injected bilateraly by icv injection in Wistar rats, and the animals are allowed to recover for a period of 7 days, after which animals can be evaluated for neurodegenerative changes in behaviour and/or by imaging of the brain.
The novel object recognition data were analyzed using the Student's t-test, with differences being considered significant if p<0.05.
On day 8, the animals were subjected to the novel object recognition (NOR) behavioural test. All objects used for the is test had similar textures, colors, and sizes but distinctive shapes. The rats were placed in a rectangular arena (76×49×57 cm) containing two identical objects (A1+A2) for the habituation and training phase. […] The discrimination index was calculated by: […]

[4] = after CBD, in the body; cited from earlier work
[5] = test system: animal models of epilepsy; conditions: cited from earlier work
[6] = test system: CB1 and CB2 receptors as well as the voltage gated Na channel and mono-amine transporters; conditions: physiological relevant concentrations; cited from earlier work

T1 sequence (P46089 whole entry): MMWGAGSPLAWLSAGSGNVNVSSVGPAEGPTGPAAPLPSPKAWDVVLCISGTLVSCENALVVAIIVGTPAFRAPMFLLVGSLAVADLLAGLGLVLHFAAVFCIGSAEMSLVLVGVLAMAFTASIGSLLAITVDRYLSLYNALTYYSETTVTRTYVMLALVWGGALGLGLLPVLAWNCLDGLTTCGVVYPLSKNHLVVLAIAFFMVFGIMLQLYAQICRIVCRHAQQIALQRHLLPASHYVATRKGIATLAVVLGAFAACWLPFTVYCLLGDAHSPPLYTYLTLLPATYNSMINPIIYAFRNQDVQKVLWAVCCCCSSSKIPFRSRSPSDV

Compound | mode of action at the GPR3 receptor (GPR3 receptor [1]) | mode of action at the GPR3 receptor (β-arrestin2 recruitment) (GPR3 receptor [2]) | long-term memory index (discrimination index), novel object recognition [3] | anticonvulsant action [5] | further results
C=C(C)[C@@H]1CCC(C)=C[C@H]1c1c(O)cc(CCCCC)cc1O [CBD, Cannabidiol] | inverse agonist | inverse agonist | – | – | IC50 (GPR3 receptor [1]; inverse agonism): 1220 nM; inhibition of GPR3 receptor activity (GPR3 receptor [1]; inverse agonist, dose-dependent): 39%
C=C(C)[C@@H]1C[C@H](O)C(C)=C[C@H]1c1c(O)cc(CCCCC)cc1O [Example 6-OH-CBD] | – | weak agonists | – | – | –
C=C(C)[C@@H]1CCC(C(=O)O)=C[C@H]1c1c(O)cc(CCCCC)cc1O [Example 7-COOH-CBD, (3R-trans)-3-(2,6-dihydroxy-4-pentylphenyl)-4-(1-methylethenyl)-1-cyclohexene-1-carboxylic acid] | – | full antagonist | 79.6±3.4 | devoid of any anticonvulsant action | plasma levels of metabolite relative to parent compound CBD [4]: up to 50 fold; binding or modulation in in vitro binding/target panel [6]: no binding or modulation properties; competition with SR144528 at the GPR3 binding site (GPR3 receptor [2]; 10 μM 7-COOH-CBD, ascending concentrations of SR144528): displaces the inverse agonist from the GPR3 binding site
C=C(C)[C@@H]1CCC(CO)=C[C@H]1c1c(O)cc(CCCCC)cc1O [Example 7-OH-CBD, 7-hydroxy-CBD] | – | weak agonists | – | equipotency to CBD | plasma levels of metabolite relative to plasma levels of parent compound CBD [4]: about 50%
COc1ccc(S(=O)(=O)c2cc(OC)ccc2S(=O)(=O)c2ccc([C@H](C)NS(C)(=O)=O)cc2)cc1 [Sch.336, N-[1(S)-[4-[[4-methoxy-2-[(4-methoxyphenyl)sulfonyl]phenyl]-sulfonyl]phenyl]ethyl]methanesulfonamide] | inverse agonist | – | – | – | –
(3R-trans)-3-(2,6-dihydroxy-4-pentylphenyl)-4-(1-methylethenyl)-1-cyclohexene-1-carboxylic acid cyclopropane ester [Example 1j] | – | – | 80.5±3.9 | – | –
